ChEMBL document CHEMBL5308504, “Tm Shift (DSF) assay results for EUbOPEN Chemogenomics Library” (2023)
Several values for one entry are separate records, joined by “and”; a condition that tells them apart may be missing. Equal values may be shown once.

Experiments:
[1] = molecular target: T1, Peregrin (Homo sapiens) (UniProt P55201); conditions: Compound concentration 20.0 uM, Protein concentration 2.0 uM, Result type QC Liability
T1 sequence (whole entry): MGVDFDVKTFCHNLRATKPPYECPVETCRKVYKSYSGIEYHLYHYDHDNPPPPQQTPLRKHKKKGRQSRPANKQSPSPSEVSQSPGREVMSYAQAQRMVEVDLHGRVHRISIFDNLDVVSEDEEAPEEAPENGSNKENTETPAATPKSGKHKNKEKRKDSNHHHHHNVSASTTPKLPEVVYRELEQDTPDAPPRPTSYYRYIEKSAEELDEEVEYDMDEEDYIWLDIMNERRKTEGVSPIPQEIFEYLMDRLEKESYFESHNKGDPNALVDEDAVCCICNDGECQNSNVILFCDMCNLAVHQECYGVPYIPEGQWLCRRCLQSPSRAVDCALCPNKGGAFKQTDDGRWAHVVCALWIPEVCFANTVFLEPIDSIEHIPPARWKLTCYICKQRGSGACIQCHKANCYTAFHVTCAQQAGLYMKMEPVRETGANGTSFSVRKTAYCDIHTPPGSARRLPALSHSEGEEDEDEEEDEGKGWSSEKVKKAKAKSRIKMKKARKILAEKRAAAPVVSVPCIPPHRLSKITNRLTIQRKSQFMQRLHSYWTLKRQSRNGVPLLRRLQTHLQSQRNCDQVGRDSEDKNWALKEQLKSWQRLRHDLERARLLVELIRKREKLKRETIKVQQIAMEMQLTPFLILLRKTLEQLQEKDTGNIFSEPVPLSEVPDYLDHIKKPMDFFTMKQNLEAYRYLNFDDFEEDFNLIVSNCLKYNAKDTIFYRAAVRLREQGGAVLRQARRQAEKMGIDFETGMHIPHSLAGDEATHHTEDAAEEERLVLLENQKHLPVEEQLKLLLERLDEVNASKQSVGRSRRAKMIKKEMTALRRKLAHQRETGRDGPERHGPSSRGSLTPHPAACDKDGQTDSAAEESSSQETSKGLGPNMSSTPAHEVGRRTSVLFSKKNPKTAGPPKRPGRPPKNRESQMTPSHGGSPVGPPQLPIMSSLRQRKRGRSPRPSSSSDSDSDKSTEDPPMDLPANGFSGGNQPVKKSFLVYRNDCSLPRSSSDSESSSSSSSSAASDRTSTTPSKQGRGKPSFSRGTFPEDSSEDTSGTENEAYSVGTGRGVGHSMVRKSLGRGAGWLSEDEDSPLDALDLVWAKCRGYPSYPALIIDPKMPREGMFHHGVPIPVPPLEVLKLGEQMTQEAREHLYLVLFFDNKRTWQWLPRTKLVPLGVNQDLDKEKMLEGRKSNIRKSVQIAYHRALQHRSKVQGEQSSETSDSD

[2] = molecular target: Fibroblast growth factor receptor 3 (Homo sapiens) (UniProt P22607); conditions: Compound concentration 20.0 uM, Protein concentration 2.0 uM, Result type QC Liability
Sequence of Fibroblast growth factor receptor 3 (Homo sapiens) (P22607 23-806 limits assumed): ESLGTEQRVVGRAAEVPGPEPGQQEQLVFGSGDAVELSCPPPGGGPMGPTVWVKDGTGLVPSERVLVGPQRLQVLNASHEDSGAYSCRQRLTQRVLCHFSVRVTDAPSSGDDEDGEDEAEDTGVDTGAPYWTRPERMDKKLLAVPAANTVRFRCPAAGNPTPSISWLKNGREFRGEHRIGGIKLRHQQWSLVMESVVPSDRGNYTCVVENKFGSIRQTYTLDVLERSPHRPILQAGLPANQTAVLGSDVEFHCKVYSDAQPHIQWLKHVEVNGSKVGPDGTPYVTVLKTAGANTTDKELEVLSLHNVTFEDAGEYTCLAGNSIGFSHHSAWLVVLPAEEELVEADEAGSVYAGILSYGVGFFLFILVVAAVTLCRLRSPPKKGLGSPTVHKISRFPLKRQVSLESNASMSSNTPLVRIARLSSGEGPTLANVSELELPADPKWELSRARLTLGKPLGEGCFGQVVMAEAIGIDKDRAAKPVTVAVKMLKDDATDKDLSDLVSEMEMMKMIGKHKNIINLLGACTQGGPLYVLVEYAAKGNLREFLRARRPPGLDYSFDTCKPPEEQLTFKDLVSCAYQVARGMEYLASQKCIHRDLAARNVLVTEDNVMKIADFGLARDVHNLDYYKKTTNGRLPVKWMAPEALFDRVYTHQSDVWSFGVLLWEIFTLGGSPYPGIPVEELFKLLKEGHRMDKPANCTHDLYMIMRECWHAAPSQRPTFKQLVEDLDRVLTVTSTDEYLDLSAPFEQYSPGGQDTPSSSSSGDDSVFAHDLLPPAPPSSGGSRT
Description: Thermal Shift Assay. Domain: start/stop: P449-E759

Structure (SMILES) | ΔTm [1] | ΔTm [2]
CN1C(=O)Cc2ccc(-c3ccc(C[C@@H](C#N)NC(=O)[C@H]4N[C@@H]5CC[C@H]4C5)c(F)c3)cc21 | 0.36 °C | 0.73 °C
Cc1cc(NC(=O)c2cccc(NC(=O)/C=C/CN(C)C)c2)ccc1Nc1nccc(-c2cccnc2)n1 | -1.22 °C | 1.04 °C
Cn1c(C(=O)N[C@@H](CO)c2ccc(C(=O)O)cc2)cc2cc(Cl)ccc21 | -2.2 °C | 0.81 °C
CCOC(=O)C1Cc2ccccc2CN1C(=O)c1ccc(SC)s1 (stereo not drawn) | -1.13 °C | 0.41 °C
COc1cc2ncnc(Nc3ccc(F)c(Cl)c3)c2cc1OCCN(C)C[C@H](C)O | -1.85 °C | 1.03 °C
Cc1ccc(NS(=O)(=O)c2ccc3c(c2)C2C=CCC2C(c2ccc(C(=O)O)cc2)N3)cc1C (stereo not drawn) | -0.5 °C | 0.11 °C
COC1(C#Cc2ccc(Cl)c(-c3ncc4c(n3)-c3sc(NC(C)=O)nc3CC4)c2)CCN(C)CC1 | -1.7 °C | 0.77 °C
CCc1nc(-c2cccc(C)c2)c(-c2ccnc(NC(=O)c3ccccc3)c2)s1 | -2.72 °C | -0.84 °C
Cc1nc(-c2ccc(C(F)(F)F)cc2)sc1C(=O)NCc1ccc(OC(C)(C)C(=O)O)cc1 | -1.41 °C | 0.71 °C
Cc1cc2c(cc(C(=O)N[C@H](CO)c3ccc(S(=O)(=O)CC(=O)O)cc3)n2C)c(Cl)c1Cl | -3.03 °C | 0.16 °C
COc1cc(-c2cncc(-c3ccc(N4CCN(C(C)C)CC4)cc3)c2C)cc(F)c1C(N)=O | -1.51 °C | 0.64 °C
CC(=O)c1ccc2c(c1)/C(=C(/Nc1cccc(C#N)c1)c1ccc3c(c1)OCCO3)C(=O)N2 | -0.95 °C | 4 °C
COc1cc2nc(C)nc(N[C@H](C)c3cc(N)cc(C(F)(F)F)c3)c2cc1O[C@H]1CCOC1 | -3.07 °C | 0.66 °C
CCCCC(C)(O)C/C=C/[C@H]1[C@H](O)CC(=O)[C@@H]1CCCCCCC(=O)O (stereo partly drawn) | -1.2 °C | 0.43 °C
CN(c1ccc(C(F)(F)F)cc1)S(=O)(=O)c1ccc(C(=O)Nc2nc(-c3ccccn3)cs2)cc1 | 7.54 °C | 8.54 °C
C#Cc1cnc2[nH]cc(-c3cccc4c3CCN4C(=O)[C@@H]3CCCN3C#N)c2c1 | -12.9 °C | 3.57 °C
CCc1ccc(N(CC(C)C)S(=O)(=O)c2ccc(OCC3CCOCC3)c(CO)c2)cc1 | -0.2 °C | 0.5 °C
CC#CCC(C)[C@H](O)/C=C/[C@@H]1[C@H]2C/C(=C/CCCC(=O)O)C[C@H]2C[C@H]1O (stereo partly drawn) | -2.03 °C | 0.4 °C
CCOP(=O)(OCC)C(=Cc1cc(C(C)(C)C)c(O)c(C(C)(C)C)c1)P(=O)(OCC)OCC | -1.65 °C | 0.83 °C
CCCCCCCN(CCc1ccc(SC(C)(C)C(=O)O)cc1)C(=O)Nc1ccc(F)cc1F | -1.59 °C | 0.87 °C

Structure (SMILES) | ΔTm [1] | ΔTm [2]
N[C@@H]1CCCC[C@H]1Oc1ccc2ncc(-c3cc4ccccc4o3)n2n1 | -2.67 °C | 0.36 °C
COc1cc(-c2cncc(-c3ccc(N4CCN(C(C)C)CC4)cc3)c2C)cc(F)c1C(=O)N1CCCC1 | -1.67 °C | 0.64 °C
O=C(Nc1cc2cc[nH]c(=O)c2cc1Cl)[C@H]1CNC[C@@H]1c1cccnc1 | -0.61 °C | 0.4 °C
C1=Cc2ccccc2C(=C2CCN(CCCCc3nnn[nH]3)CC2)c2ccccc21 | -1.48 °C | 0.36 °C
Cn1c(C2(NC(=O)c3ccc(NCC4CCCCC4)nc3)CCC2)nc2ccc(/C=C/C(=O)O)cc21 | -2.12 °C | 1.03 °C
CN[C@@H](C)C(=O)N[C@H](C(=O)N1CCC[C@H]1C(=O)N[C@@H]1CCCc2ccccc21)C1CCCCC1 | -1.87 °C | 0.75 °C
Cc1cccc(-c2nn3c(c2-c2ccnc4ccc(C(N)=O)cc24)CCC3)n1 | -0.93 °C | 1.13 °C
FC(F)c1cncc(-c2ccc3ncc4nnc(C5=CCCOCC5)n4c3c2)c1 | -2.16 °C | 0.51 °C
CC1CCN(C(=O)[C@@H](CCn2cccc2C#N)NS(=O)(=O)c2cccc3[nH]ccc23)CC1 | -3.16 °C | 0.36 °C
Cc1cc(C)nc(Nc2ncc(C(=O)NCCc3c(C)[nH]c4ccccc34)cn2)c1 | -2.14 °C | 0.85 °C
Cc1cnc(Nc2ccc(C(=O)N3CCN(C)CC3)cc2)nc1N[C@@H]1CCC[C@@H]1C(N)=O | -1.57 °C | 7.25 °C
Cc1c(NC(=O)COc2ccc(Cl)cc2C(=O)c2cc(F)cc(C(F)(F)F)c2)ccc(C(=O)O)c1F | -2.51 °C and -1.17 °C | 0.45 °C and 3.99 °C
Cc1cc(OCCC(C)(C)O)cc(C)c1-c1ccc(F)c2c1CC[C@H]2Oc1ccc2c(c1)OC[C@H]2CC(=O)O | -15.3 °C | -2.24 °C
C[C@@H](CN1CC[C@@]2(C)c3cccc(O)c3C[C@@H]1C2(C)C)OCc1ccccc1 | -1.96 °C | 1.19 °C
N#C/C(=C\c1ccc(O)c(O)c1)C(=O)OCCc1cccs1 | -0.27 °C | 1.51 °C
Cc1nnc2n1-c1sc3c(c1C(c1ccccc1Cl)=NC2)CC(C(=O)N1CCOCC1)C3 (stereo not drawn) | -1.83 °C | 0.52 °C
CN1CCc2cc(Nc3ncc(C(F)(F)F)c(NCc4cc[nH]n4)n3)ccc2C1 | -1.01 °C | 8.22 °C
COc1cc(-c2cc3ncccc3c(O[C@@H](C)[C@H]3CNC(=O)C3)n2)cc(OC)c1OC | -2.76 °C | 0.6 °C
O=C(O)C[C@H]1CCn2c1c(Sc1ccc(Cl)cc1)c1ccc(F)cc12 | -3.8 °C | -0.05 °C
COc1cc(Oc2nc(-c3ccc(NC(=O)C4CCOC4)cc3)nn3c(C)nc(C)c23)cc(OC)c1OC (stereo not drawn) | -1.59 °C | 1.34 °C

Structure (SMILES) | ΔTm [1] | ΔTm [2]
CN1CCN(c2ccc(-n3cc(-c4ccncc4OCC4CCNCC4)cn3)cc2)CC1 | -0.97 °C | 1.33 °C
Cn1cncc1-c1cn(-c2cccc(C(=O)Nc3cccc(C(F)(F)F)c3)c2)nn1 | -1.49 °C | -9.32 °C
NC(=O)c1ccccc1Nc1nc(-c2ccc(N3CCOCC3)cc2)cc2ncccc12 | -0.11 °C | 4.32 °C
COc1ccc(N(C(=O)Nc2c(C)cccc2C)c2cc(Nc3ccc(N4CCN(C)CC4)cc3)ncn2)c(OC)c1 | -3.64 °C | 8.93 °C
Nc1nc(-c2nn(Cc3ccccc3F)c3ncccc23)ncc1C1CC1 | -2.28 °C | 1.14 °C
CN(C)C(=O)c1sc2nc(N3CCC(S(C)(=O)=O)CC3)cc(C(F)(F)F)c2c1N | -2.57 °C and -1.49 °C | 0.65 °C and 1.05 °C
CC(C)(c1ccc(OCc2cccc(COc3ccc(C(=N)N)cc3)c2)cc1)c1ccc(O[C@@H]2O[C@H](C(=O)O)[C@@H](O)[C@H](O)[C@H]2O)cc1 | -6.79 °C | -5.02 °C
COc1cc2nc([C@@H]3CCCS(=O)(=O)C3)n(C)c2cc1NC(=O)c1cccc(C(C)(F)F)n1 | -2.41 °C | 0.66 °C
CNC(=O)c1ccc2c(c1)ncn2-c1ccc(CC(=O)OC(C)(C)C)cc1 | -1.38 °C | 4.13 °C
CN[C@@H](C)C(=O)N[C@H](C(=O)N1CCC[C@H]1C(=O)N[C@H]1c2ccccc2C[C@H]1OCC#CC#CCO[C@@H]1Cc2ccccc2[C@@H]1NC(=O)[C@@H]1CCCN1C(=O)[C@@H](NC(=O)[C@H](C)NC)C1CCCCC1)C1CCCCC1 | -2.65 °C | 1.42 °C
CCCCNc1ncc2c(-c3ccc(CN4CCN(C)CC4)cc3)cn([C@H]3CC[C@H](O)CC3)c2n1 | -3.2 °C | 7.9 °C
COCCOCn1c(S(C)(=O)=O)nc2c1c(=O)n(C)c(=O)n2C | -2.72 °C | 0.45 °C
Cc1ccc(-c2cn3nc(C(=O)NC4(c5ccc(F)cc5)CN(C)C4)c(C(C)C)c3c(=O)[nH]2)cc1C | -2.45 °C | 0.62 °C
CC(C)C[C@H](NC(=O)[C@@H](O)[C@H](N)Cc1ccccc1)C(=O)O | -2.93 °C | 0.78 °C
Nc1ncc2c(n1)-c1c([nH]c3ccc(C4=CCOCC4)cc13)CCC2 | -2.26 °C | 1.34 °C
Cc1nn(C)c(COc2ccc(N3CCN(S(=O)(=O)N(C)C)CC3)cc2)c1-c1cccc2c(CCCOc3cccc4ccccc34)c(C(=O)O)n(CCN3CCOCC3)c12 | -2.4 °C | 0.47 °C
C=CC1C[C@]1(NC(=O)[C@@H]1C[C@@H](Oc2cc(-c3csc(NC(=O)C(C)C)n3)nc3c(Br)c(OC)ccc23)CN1C(=O)[C@@H](NC(=O)OC1CCCC1)C(C)(C)C)C(=O)O (stereo partly drawn) | -2.59 °C | 1.41 °C
CCc1c(-c2ccc3[nH]ncc3c2)cnc(N)c1-c1ccc(O)cc1 | -1.61 °C | 2.78 °C
NCCCc1c(C(=O)O)[nH]c2ccc(C(=O)Nc3ccccc3)cc12 | -1.68 °C | 0.79 °C
